T/C data for 22 compounds are collected here from PubChem BioAssay AID330 (DTP/NCI, 2004).

In the experiment the test system is P388 leukemia ip, CD2F1 mice, survival T/C. Kind of experiment: NCI In Vivo Anticancer Drug Screen. Data for tumor model P388 Leukemia (intraperitoneal) in CD2F1 (CDF1) mice. The conditions noted are these: endpoint: median survival time, higher = longer survival. The procedure, abridged: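 Mice carrying the transplanted tumor received test compound or vehicle. Survival was recorded in each group, and the value is the treated-group measurement divided by that of the vehicle-treated control group.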

The mark [1] stands for this setting: dose: 25.0 mg/kg/injection, schedule: Q04DX003 (ip), vehicle: saline.
[2] abbreviates: dose: 50.0 mg/kg/injection, schedule: Q04DX003 (ip), vehicle: saline.
Where [3] appears, read: dose: 60.0 mg/kg/injection, schedule: Q01DX005 (ip), vehicle: saline with Tween-80.
Where [4] appears, read: dose: 120.0 mg/kg/injection, schedule: Q01DX005 (ip), vehicle: saline with Tween-80.
[5] abbreviates: dose: 240.0 mg/kg/injection, schedule: Q01DX005 (ip), vehicle: saline with Tween-80.
Setting [6] is: dose: 50.0 mg/kg/injection, schedule: Q01DX005 (ip), vehicle: saline with Tween-80.
Where [7] appears, read: dose: 100.0 mg/kg/injection, schedule: Q01DX005 (ip), vehicle: saline with Tween-80.
The mark [8] stands for this setting: dose: 200.0 mg/kg/injection, schedule: Q01DX005 (ip), vehicle: saline with Tween-80.
[9] abbreviates: dose: 25.0 mg/kg/injection, schedule: Q01DX009 (ip), vehicle: saline.
[10] abbreviates: dose: 50.0 mg/kg/injection, schedule: Q01DX009 (ip), vehicle: saline.
The mark [11] stands for this setting: dose: 50.0 mg/kg/injection, schedule: Q01DX005 (ip), vehicle: Klucel (hydroxypropylcellulose) (HPC).
Setting [12] is: dose: 100.0 mg/kg/injection, schedule: Q01DX005 (ip), vehicle: Klucel (hydroxypropylcellulose) (HPC).
[13] abbreviates: dose: 200.0 mg/kg/injection, schedule: Q01DX005 (ip), vehicle: Klucel (hydroxypropylcellulose) (HPC).

Each structure is given as a SMILES string. Values joined by “and” are separate entries in the source; they are usually repeats but may differ in a detail not shown here. Equal entries are not always repeated. Toxic doses and inconclusive results are not listed. Square brackets hold non-standard residues; d marks the D form. Peptide text beside a SMILES is read from it. ξ: configuration not given here. ξF = NC(Cc1ccccc1)C(=O)O

For `COc1cccc2c1C(=O)c1c(O)c3c(c(O)c1C2=O)C[C@@](O)(C(=O)CO)CC3OC1CC(O)C(O)C(C)O1` (some centres undefined), the T/C by setting is: (dose: 6.25 mg/kg/injection, schedule: Q04DX003 (ip), vehicle: saline) 122 % of control; (dose: 12.5 mg/kg/injection, schedule: Q04DX003 (ip), vehicle: saline) 165 % of control; under setting [1], 183 % of control; under setting [2], 209 % of control.
Consider `CC(=O)O[C@@H]1C[C@@](C)(C[C@H]2COC(=O)C2)[C@@H]2CC(=O)O[C@@H]3C[C@H]4C(C)=C[C@@H](O)C(=O)[C@]4(C)[C@@H]1[C@@]32C`, for which the T/C reads like this: (dose: 1.5 mg/kg/injection, schedule: Q01DX009 (ip), vehicle: Klucel (hydroxypropylcellulose) (HPC)) 99 % of control; (dose: 3.0 mg/kg/injection, schedule: Q01DX009 (ip), vehicle: Klucel (hydroxypropylcellulose) (HPC)) 92 % of control; (dose: 6.0 mg/kg/injection, schedule: Q01DX009 (ip), vehicle: Klucel (hydroxypropylcellulose) (HPC)) 108 % of control; (dose: 12.0 mg/kg/injection, schedule: Q01DX009 (ip), vehicle: Klucel (hydroxypropylcellulose) (HPC)) 91 % of control.
Consider `O=C1c2ccccc2C(=O)c2cc3c(cc21)OCO3`, for which the T/C is 88 % of control (dose: 60.0 mg/kg/injection, schedule: Q01DX005 (ip), vehicle: Klucel (hydroxypropylcellulose) (HPC)) and 89 % of control (dose: 120.0 mg/kg/injection, schedule: Q01DX005 (ip), vehicle: Klucel (hydroxypropylcellulose) (HPC)).
For the compound `COCON=C(C)C`, the T/C reads like this: (dose: 100.0 mg/kg/injection, schedule: Q01DX001 (ip), vehicle: saline) 100 % of control; (dose: 200.0 mg/kg/injection, schedule: Q01DX001 (ip), vehicle: saline) 99 % of control; (dose: 400.0 mg/kg/injection, schedule: Q01DX001 (ip), vehicle: saline) 98 % of control.
With `COc1cc(C2C3=C(CCCC3=O)Oc3cc4c(cc32)OCO4)cc(OC)c1OC` (centres undefined), the T/C reads like this: under setting [3], 91 % of control; under setting [4], 90 % of control; under setting [5], 98 % of control.
In the case of `O=C(NCCCC1NC(=O)/C(=C(O)/C=C/C2CCCCC2)C1=O)OCc1ccccc1` (centres undefined), the T/C was 100 % of control under setting [6], 95 % of control under setting [7] and 100 % of control under setting [8].
As to `CCOC(=O)CCCCCCCCNC(=O)N1c2c(nc(N)[nH]c2=O)NCC1CNc1ccc(C(=O)NC(CCC(=O)O)C(=O)O)cc1` (centres undefined), the T/C is, setting by setting: (dose: 50.0 mg/kg/injection, schedule: Q04DX003 (ip), vehicle: Klucel (hydroxypropylcellulose) (HPC)) 111 % of control; (dose: 100.0 mg/kg/injection, schedule: Q04DX003 (ip), vehicle: Klucel (hydroxypropylcellulose) (HPC)) 106 % of control; (dose: 200.0 mg/kg/injection, schedule: Q04DX003 (ip), vehicle: Klucel (hydroxypropylcellulose) (HPC)) 108 % of control.
For the compound `CCCCOC(=O)C(c1ccccc1)C1(C)Sc2ccccc2NC1=O` (centres undefined), the T/C runs as follows: (dose: 12.5 mg/kg/injection, schedule: Q01DX001 (ip), vehicle: saline with Tween-80) 95 % of control; (dose: 25.0 mg/kg/injection, schedule: Q01DX001 (ip), vehicle: saline with Tween-80) 96 % of control; (dose: 50.0 mg/kg/injection, schedule: Q01DX001 (ip), vehicle: saline with Tween-80) 98 % of control.
Turning to `C=C1CC2(OC1=O)C(=O)N(C)c1ccc(I)cc12` (centres undefined), the T/C is, setting by setting: under setting [9], 116 % of control; under setting [10], 87 % of control.
In the case of `CCCCC(C)(CN(C)C)C(=O)/C=C/c1ccc(Cl)c(Cl)c1` (centres undefined), the T/C is, setting by setting: (dose: 3.13 mg/kg/injection, schedule: Q01DX009 (ip), vehicle: saline) 111 % of control and 97 % of control; (dose: 6.25 mg/kg/injection, schedule: Q01DX009 (ip), vehicle: saline) 102 % of control and 108 % of control; (dose: 12.5 mg/kg/injection, schedule: Q01DX009 (ip), vehicle: saline) 109 % of control; under setting [9], 106 % of control and 109 % of control.
Turning to `CC(=O)Nc1ccccc1OC(=O)NC(C)(C)C`, the T/C is, setting by setting: under setting [3], 97 % of control; under setting [4], 100 % of control; under setting [5], 90 % of control.
For `COC(=O)C1C(O)C(C)C(O)OC1C(C)C(O)C(C)/C=C\C=C(/C)C(=O)Nc1c(C)c(OC(C)=O)c2c(c1O)C(=O)C(C)=C1OCOC(/C(C)=C/C(C)=O)=C12` (centres undefined), the T/C reads like this: (dose: 12.5 mg/kg/injection, schedule: Q01DX009 (ip), vehicle: Klucel (hydroxypropylcellulose) (HPC)) 103 % of control; (dose: 25.0 mg/kg/injection, schedule: Q01DX005 (ip), vehicle: Klucel (hydroxypropylcellulose) (HPC)) 106 % of control; (dose: 25.0 mg/kg/injection, schedule: Q01DX009 (ip), vehicle: Klucel (hydroxypropylcellulose) (HPC)) 108 % of control; under setting [11], 113 % of control; (dose: 50.0 mg/kg/injection, schedule: Q01DX009 (ip), vehicle: Klucel (hydroxypropylcellulose) (HPC)) 112 % of control; under setting [12], 113 % of control. Further, the T/C reads like this: (dose: 100.0 mg/kg/injection, schedule: Q01DX009 (ip), vehicle: Klucel (hydroxypropylcellulose) (HPC)) 108 % of control; under setting [13], 118 % of control.
With `Cn1c2c(F)cccc2c(=O)c2c(O)cc3c(c21)C=CC(C)(C)O3`, the T/C was 96 % of control under setting [11], 91 % of control under setting [12] and 94 % of control under setting [13].
`CSC1=Nc2cc3c(cc2C(=O)N2CC(OC(C)=O)CC12)OCO3` (centres undefined): the T/C reads like this: under setting [6], 98 % of control; under setting [7], 99 % of control; under setting [8], 97 % of control.
Consider `O=C(NN(CCO)CCO)c1ccccc1`, for which the T/C is, setting by setting: under setting [6], 100 % of control; under setting [7], 105 % of control; under setting [8], 100 % of control.
With `CCCCCCCCCCCCCCS[As](C)C`, the T/C (dose: 25.0 mg/kg/injection, schedule: Q04DX002 (ip), vehicle: Klucel (hydroxypropylcellulose) (HPC)) is 101 % of control; the T/C (dose: 50.0 mg/kg/injection, schedule: Q04DX002 (ip), vehicle: Klucel (hydroxypropylcellulose) (HPC)) was 94 % of control; the T/C (dose: 100.0 mg/kg/injection, schedule: Q04DX002 (ip), vehicle: Klucel (hydroxypropylcellulose) (HPC)) is 90 % of control and 92 % of control; the T/C (dose: 400.0 mg/kg/injection, schedule: Q04DX002 (ip), vehicle: Klucel (hydroxypropylcellulose) (HPC)) is 91 % of control.
On to `Cc1ccc(C2CCC(C#N)=CN2C)cc1` (centres undefined), for which the T/C runs as follows: (dose: 50.0 mg/kg/injection, schedule: Q01DX005 (ip), vehicle: Klucel + Tween-80) 94 % of control; (dose: 100.0 mg/kg/injection, schedule: Q01DX005 (ip), vehicle: Klucel + Tween-80) 98 % of control; (dose: 200.0 mg/kg/injection, schedule: Q01DX005 (ip), vehicle: Klucel + Tween-80) 100 % of control.
Take `CCOC(=O)c1ccc2nc(/N=C/c3ccccc3Cl)sc2c1`: the T/C under setting [10] was 105 % of control; the T/C (dose: 100.0 mg/kg/injection, schedule: Q01DX009 (ip), vehicle: saline) is 108 % of control; the T/C (dose: 200.0 mg/kg/injection, schedule: Q01DX009 (ip), vehicle: saline) is 105 % of control.
As for `N=c1c(C(N)=O)cnc2n1CCCCC2`, the T/C reads like this: under setting [1], 100 % of control; under setting [2], 100 % of control; (dose: 100.0 mg/kg/injection, schedule: Q04DX003 (ip), vehicle: saline) 98 % of control.
`CCCCCCC(=O)/C=C/c1cc(OC)c(OC)cc1OC`: the T/C reads like this: (dose: 50.0 mg/kg/injection, schedule: Q01DX009 (ip), vehicle: saline with Tween-80) 100 % of control; (dose: 100.0 mg/kg/injection, schedule: Q01DX009 (ip), vehicle: saline with Tween-80) 94 % of control; (dose: 200.0 mg/kg/injection, schedule: Q01DX009 (ip), vehicle: saline with Tween-80) 96 % of control.
On to `NCC(=O)NC(Cc1ccccc1)C(=O)NCC(=O)O` (centres undefined) (H-Gly-[ξF]-Gly-OH), for which the T/C was 100 % of control under setting [11], 104 % of control under setting [12] and 100 % of control under setting [13].
In the case of `Cc1c2ccncc2c(CNC(=O)CCC(=O)NCc2c3cnccc3c(C)c3c2c2ccccc2n3C)c2c3ccccc3n(C)c12`, the T/C is 108 % of control (dose: 6.25 mg/kg/injection, schedule: Q04DX002 (ip), vehicle: saline with Tween-80); 103 % of control (dose: 12.5 mg/kg/injection, schedule: Q04DX002 (ip), vehicle: saline with Tween-80); 102 % of control (dose: 25.0 mg/kg/injection, schedule: Q04DX002 (ip), vehicle: saline with Tween-80); 102 % of control (dose: 50.0 mg/kg/injection, schedule: Q04DX002 (ip), vehicle: saline with Tween-80).
